The target of assay [1] is T1, RNA-binding protein pos-1 (Caenorhabditis elegans, UniProt G5EF15).
T1 sequence (G5EF15 whole entry): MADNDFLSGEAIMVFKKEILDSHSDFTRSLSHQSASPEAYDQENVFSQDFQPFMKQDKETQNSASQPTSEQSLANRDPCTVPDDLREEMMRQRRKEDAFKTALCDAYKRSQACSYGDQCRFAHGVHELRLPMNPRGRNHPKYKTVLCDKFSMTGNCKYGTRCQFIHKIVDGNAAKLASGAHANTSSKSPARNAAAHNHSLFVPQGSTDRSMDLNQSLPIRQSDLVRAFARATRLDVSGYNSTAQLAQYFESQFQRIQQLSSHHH
The experiment in a line: disruptors of C. elegans POS-1 RNA interaction – biochemical, fluorescence polarization, dose response (AID 1964).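 Further: purified POS-1 fused to maltose binding protein made in E. coli; potency of compounds blocking POS-1 binding to fluorescent RNA.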 A general note: In fluorescence polarisation assays a small probe gives low polarisation when free and higher when bound to something large.

For assay [2], the target named is T2, Zinc finger protein mex-5 (Caenorhabditis elegans, UniProt Q9XUB2).
T2 sequence (Q9XUB2 whole entry): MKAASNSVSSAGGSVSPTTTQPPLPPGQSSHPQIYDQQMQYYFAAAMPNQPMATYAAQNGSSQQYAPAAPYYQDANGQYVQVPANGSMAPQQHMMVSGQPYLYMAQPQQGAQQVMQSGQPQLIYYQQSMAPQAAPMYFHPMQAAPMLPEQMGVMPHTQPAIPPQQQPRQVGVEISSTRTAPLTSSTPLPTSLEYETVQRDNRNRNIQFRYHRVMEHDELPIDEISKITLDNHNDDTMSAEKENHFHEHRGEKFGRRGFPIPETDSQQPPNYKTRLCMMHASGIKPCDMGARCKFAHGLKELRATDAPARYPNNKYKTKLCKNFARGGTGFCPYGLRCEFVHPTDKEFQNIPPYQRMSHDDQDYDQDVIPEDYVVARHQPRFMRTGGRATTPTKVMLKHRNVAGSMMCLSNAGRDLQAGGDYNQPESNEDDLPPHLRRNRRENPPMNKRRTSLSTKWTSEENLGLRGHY
The assay is described as follows: potency of MEX-5 RNA-binding blockers – biochemical, C. elegans, fluorescence polarization, dose response (AID 1960).

The target of assay [3] is T3, Luciferin 4-monooxygenase (Photinus pyralis, UniProt P08659). The assay is described as follows: inhibition of purified Photinus pyralis luciferase – biochemical, luminescence, dose response (AID 1891).
Assay [4] is described as follows: Luminescence Cell-Based Dose Confirmation HTS to Identify Inhibitors of Platelet Dense Granule Release. [Related pubchem assays: 1663 (Primary HTS), 1678 (Summary of Project)]. Format: functional.
Another assay concerns HeLa. The assay is described as follows: viability loss in HeLa cells – cell-based, 24 h, cherry-picked samples, cytotoxicity control, dose response (AID 504726).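 Further: potency for cytotoxicity as loss of luminescence signal.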 Conditions: Homo sapiens. Format: functional.
Assay [5] concerns the target T4, Lysine-specific demethylase 4C (Homo sapiens, UniProt Q9H3R0).
T4 sequence (Q9H3R0 whole entry): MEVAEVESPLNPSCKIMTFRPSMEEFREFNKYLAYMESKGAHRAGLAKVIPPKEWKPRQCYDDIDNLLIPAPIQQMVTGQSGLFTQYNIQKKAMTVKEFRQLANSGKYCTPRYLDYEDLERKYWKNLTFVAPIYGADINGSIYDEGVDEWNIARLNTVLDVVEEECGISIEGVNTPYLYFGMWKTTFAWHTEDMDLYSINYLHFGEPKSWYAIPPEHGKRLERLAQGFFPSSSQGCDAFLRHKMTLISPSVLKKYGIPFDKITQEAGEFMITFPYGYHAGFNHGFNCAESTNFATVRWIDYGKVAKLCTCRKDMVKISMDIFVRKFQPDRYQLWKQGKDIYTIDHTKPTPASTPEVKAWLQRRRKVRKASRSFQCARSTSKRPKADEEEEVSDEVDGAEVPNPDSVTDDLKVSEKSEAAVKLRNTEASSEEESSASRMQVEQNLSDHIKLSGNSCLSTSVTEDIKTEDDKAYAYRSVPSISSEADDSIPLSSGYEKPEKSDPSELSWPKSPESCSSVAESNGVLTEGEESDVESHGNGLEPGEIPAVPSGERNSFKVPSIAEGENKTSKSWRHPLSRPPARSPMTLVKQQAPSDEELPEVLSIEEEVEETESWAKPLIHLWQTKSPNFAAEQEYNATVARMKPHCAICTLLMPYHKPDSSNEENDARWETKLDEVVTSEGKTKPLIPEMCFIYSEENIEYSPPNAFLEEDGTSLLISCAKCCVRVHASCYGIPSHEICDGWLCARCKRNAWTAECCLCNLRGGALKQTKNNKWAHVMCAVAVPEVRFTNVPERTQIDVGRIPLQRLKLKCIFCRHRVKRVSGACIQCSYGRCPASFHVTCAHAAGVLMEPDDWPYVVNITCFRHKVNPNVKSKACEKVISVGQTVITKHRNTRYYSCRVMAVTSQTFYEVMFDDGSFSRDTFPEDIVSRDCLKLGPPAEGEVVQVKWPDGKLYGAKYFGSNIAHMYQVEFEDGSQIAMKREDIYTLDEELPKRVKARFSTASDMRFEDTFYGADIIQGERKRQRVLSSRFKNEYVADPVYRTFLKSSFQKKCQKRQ
The experiment in a line: inhibition of JMJD2C H3K9me3 demethylation – biochemical, DELFIA europium, cherry-picked samples, dose response (AID 488835). Format: functional.

In another assay the target is Cytochrome P450 3A4 (Homo sapiens, UniProt P08684). Conditions: Potency.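 Further: confirmatory qHTS run detecting inhibitors and substrates of CYP3A4.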
In assay [6] the target is T3, Luciferin 4-monooxygenase. The experiment in a line: Counter Screen for Luciferase-based Assay Positives. [Related pubchem assays: 620, 618, 411 ]. Background: Counterscreens check selectivity or assay interference.
Another assay concerns HT-1080. The assay is described as follows: HT1080 cell viability loss – fluorescence readout (AID 620). To be noted: Homo sapiens. Format: functional, cell-based.
Assay [7] is described as follows: blockers of bursicon-stimulated LGR2 cAMP reporter – cell-based, HEK293, CRE-luciferase reporter, cherry pick, set 2, dose response (AID 743343).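 Further: transfected cells were stimulated with diluted bursicon conditioned medium after compound addition.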 It counts as functional. (In general: In a reporter assay the amount or activity of a reporter protein is the signal.)
Assay [8] is described as follows: blockade of melanocortin 4 receptor signaling – cell-based, plate reader, cherry pick, counter-screen for LGR2 antagonist project, dose response (AID 743444).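 Further: transfected HEK 293 cells stimulated with alpha-MSH peptide; potency of inhibitors of the alpha-MSH evoked signal.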 Format: functional.

Each structure is given as a SMILES string. Calls of active or inactive are those of the source.

T3 sequence (P08659 whole entry): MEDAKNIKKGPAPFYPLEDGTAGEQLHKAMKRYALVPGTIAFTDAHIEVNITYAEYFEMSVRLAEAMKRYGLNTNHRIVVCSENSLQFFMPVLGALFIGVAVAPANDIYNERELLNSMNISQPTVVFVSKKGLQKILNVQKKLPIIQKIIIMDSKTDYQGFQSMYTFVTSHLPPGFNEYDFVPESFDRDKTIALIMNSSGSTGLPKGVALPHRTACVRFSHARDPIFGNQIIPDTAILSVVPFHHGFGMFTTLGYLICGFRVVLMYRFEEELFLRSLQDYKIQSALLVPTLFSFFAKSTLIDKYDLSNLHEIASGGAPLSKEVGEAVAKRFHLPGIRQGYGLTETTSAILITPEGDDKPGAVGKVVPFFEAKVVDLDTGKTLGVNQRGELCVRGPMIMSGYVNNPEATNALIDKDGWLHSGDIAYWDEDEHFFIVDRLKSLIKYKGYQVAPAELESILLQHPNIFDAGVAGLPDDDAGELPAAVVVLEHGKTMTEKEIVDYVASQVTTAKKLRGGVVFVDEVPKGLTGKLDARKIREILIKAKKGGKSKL
Chain of Cytochrome P450 3A4 (P08684 whole entry): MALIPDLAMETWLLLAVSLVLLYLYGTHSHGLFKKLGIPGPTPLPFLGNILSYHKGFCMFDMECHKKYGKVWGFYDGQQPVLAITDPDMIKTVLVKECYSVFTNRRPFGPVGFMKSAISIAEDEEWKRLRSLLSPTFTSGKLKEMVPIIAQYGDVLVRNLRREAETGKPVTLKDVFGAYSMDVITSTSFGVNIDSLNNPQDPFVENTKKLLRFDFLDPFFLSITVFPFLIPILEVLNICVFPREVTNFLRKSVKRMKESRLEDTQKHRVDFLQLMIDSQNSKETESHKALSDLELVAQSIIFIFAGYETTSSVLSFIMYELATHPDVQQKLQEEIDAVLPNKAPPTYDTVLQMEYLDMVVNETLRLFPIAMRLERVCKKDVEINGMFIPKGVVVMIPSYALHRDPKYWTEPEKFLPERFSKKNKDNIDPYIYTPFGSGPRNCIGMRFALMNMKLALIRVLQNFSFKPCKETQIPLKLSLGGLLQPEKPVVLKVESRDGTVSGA

Consider `Cc1cc(NS(=O)(=O)c2ccc(Nc3nc(-c4sc(N)nc4C)cs3)cc2)no1`, for which the EC50 was 9.62 µM (active) in assay [1], 7.76 µM (active) in assay [2], > 112 µM (not active) in assay [3] and > 112 µM (not active) in assay [4]. The AC50 with HeLa was 52.4 µM (active); in assay [5], 8.48 µM (active).

With `Oc1ccc(Cl)c(Cl)c1Cl`, at Cytochrome P450 3A4, the AC50 was 15.8 µM (inconclusive).

With `CCCCCc1ccc(-c2ccc(C(=O)O)cc2)nc1`, the EC50 in [6] is 43.4 µM (active); in the assay on HT-1080, > 50 µM (not active). Further, the AC50 in assay [7] was 13.9 µM (active); in assay [8] it was 14.1 µM (active).

Consider `CC(C)=CCC1=C(O)C(=O)c2ccccc2C1=O` [LAPACHOL], for which the AC50 on Cytochrome P450 3A4 was 25.1 µM (inconclusive).

Usually EC50 stands for the concentration at which the effect is half-maximal. The term AC50 denotes the concentration at which the activity in the assay is half-maximal.

The values are drawn from ChEMBL document CHEMBL1201862, “PubChem BioAssay data set” (2004).
